Laboratory results taken from US20090318527A1, “INDOLE COMPOUNDS AND METHODS OF USE THEREOF” (priority 2008, published 2009).
Counter-ions that a name gives are not always drawn.

Columns and labels:
[1] = molecular target: T1, human 5-HT2A receptor (Homo sapiens, UniProt P28223); experiment: Intracellular calcium flux assay, HEK 293 cells stably expressing 5-HT2A; type: cell-based; settings: for Emax at 10 µM: HEK293, read-out: 5-HT2A functional activity (N/A class); for 5-HT2A response as percentage of the maximal 5-HT response @ 10,000: EC50 not reached; for EC50 / 5-HT2A efficacy as percentage of the maximal 5-HT response ± SD: calcium flux, at least three independent experiments; for EC50: each in triplicate, read-out: 5-HT2A mean EC50 ± SD;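 as to all read-outs here: fluorescent calcium dye read on FLIPR Tetra, peak signal above baseline within 60 s after compound addition, seven concentrations spanning 10 pM to 10 µM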
T1 construct: expressed in transfected cells; host or cells: HEK 293

[2] = molecular target: T2, 5-HT2C (Homo sapiens, UniProt P28335); experiment: Intracellular calcium flux assay, HEK 293 cells stably expressing 5-HT2C; type: cell-based; design: expressed in transfected cells; host or cells: HEK 293; settings: for Emax: HEK293, read-out: 5-HT2C efficacy as percentage of the maximal 5-HT response ± SD, at least three independent experiments, entries marked a (42, 50, 51, 52) single measurements; for EC50: read-out: 5-HT2C mean EC50 ± SD;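 as to all read-outs here: calcium dye fluorescence read on FLIPR Tetra as peak signal above baseline within 60 s of compound addition, seven concentrations from 10 pM to 10 µM, each in triplicate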
T2 sequence (P28335 33-458): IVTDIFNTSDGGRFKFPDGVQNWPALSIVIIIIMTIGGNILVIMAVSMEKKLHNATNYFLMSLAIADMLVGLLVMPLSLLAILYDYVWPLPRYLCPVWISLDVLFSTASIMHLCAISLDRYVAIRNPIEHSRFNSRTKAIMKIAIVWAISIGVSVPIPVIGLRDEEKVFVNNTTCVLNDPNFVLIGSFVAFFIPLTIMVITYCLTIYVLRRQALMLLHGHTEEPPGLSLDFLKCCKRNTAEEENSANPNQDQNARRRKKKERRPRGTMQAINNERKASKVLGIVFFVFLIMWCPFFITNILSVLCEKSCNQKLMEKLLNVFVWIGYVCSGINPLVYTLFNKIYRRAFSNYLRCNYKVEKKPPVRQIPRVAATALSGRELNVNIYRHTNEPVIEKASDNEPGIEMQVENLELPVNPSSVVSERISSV

[3] = molecular target: T3, human 5-HT2B receptor (Homo sapiens, UniProt P41595); experiment: Intracellular calcium flux assay, HEK 293 cells stably expressing 5-HT2B; type: cell-based; settings: for Emax at 10 µM: HEK293, read-out: 5-HT2B functional activity (N/A class); for Emax: HEK293, read-out: 5-HT2B efficacy as percentage of the maximal 5-HT response ± SD; for Emax / EC50: calcium flux, at least three independent experiments; for EC50: each in triplicate, read-out: 5-HT2B mean EC50 ± SD;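 as to all read-outs here: calcium dye fluorescence read on a FLIPR Tetra, peak signal above baseline within 60 s after compound addition, seven-point concentration series from 10 pM up to 10 µM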
T3 construct: expressed in transfected cells; host or cells: HEK 293

[4] = at least three independent experiments, entries marked a (42, 50, 51, 52) single measurements

T3 sequence (P41595 whole entry): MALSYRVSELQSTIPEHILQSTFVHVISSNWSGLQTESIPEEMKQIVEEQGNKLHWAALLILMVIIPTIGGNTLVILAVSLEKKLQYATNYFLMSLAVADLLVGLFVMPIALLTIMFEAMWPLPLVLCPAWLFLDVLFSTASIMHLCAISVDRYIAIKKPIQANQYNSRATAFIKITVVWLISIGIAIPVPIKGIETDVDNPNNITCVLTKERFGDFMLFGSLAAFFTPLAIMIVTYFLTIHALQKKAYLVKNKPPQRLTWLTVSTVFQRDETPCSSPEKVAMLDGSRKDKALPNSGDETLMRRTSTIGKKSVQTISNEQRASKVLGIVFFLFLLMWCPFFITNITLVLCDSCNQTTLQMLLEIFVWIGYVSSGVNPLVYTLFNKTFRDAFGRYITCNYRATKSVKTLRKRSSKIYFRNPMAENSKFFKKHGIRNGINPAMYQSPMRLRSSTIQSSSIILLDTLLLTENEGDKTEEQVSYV
T1 sequence (P28223 whole entry): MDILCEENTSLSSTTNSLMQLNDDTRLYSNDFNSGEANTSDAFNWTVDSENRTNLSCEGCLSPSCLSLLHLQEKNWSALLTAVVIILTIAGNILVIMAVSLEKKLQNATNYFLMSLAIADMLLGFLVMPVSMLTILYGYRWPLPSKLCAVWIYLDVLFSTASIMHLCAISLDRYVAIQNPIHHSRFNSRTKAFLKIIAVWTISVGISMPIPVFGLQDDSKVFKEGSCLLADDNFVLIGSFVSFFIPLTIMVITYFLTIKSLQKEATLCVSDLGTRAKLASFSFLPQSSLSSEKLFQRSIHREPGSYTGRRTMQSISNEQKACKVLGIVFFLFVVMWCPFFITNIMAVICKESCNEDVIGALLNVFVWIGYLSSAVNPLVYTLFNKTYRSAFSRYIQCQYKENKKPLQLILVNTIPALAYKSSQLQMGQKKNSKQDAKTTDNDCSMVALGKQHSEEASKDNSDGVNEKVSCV

Compound | Emax at 10 µM ([1]; at 10,000 nM) [%] | melting point [°C] | Emax [2] [%] | EC50 [2, 4] [nM] | Emax at 10 µM ([3]; at 10,000 nM) [%] | 5-HT2A response as percentage of the maximal 5-HT response @ 10,000 ([1]; at 10,000 nM) | EC50 [1] [nM] | Emax [3] [%] | EC50 [3] [nM] | 5-HT2A efficacy as percentage of the maximal 5-HT response ± SD [1] | 5-HT2A functional activity (N/A class) ([1]; at 10,000 nM) | 5-HT2C efficacy as percentage of the maximal 5-HT response ± SD [2, 4] | 5-HT2B functional activity (N/A class) ([3]; at 10,000 nM)
CN(C)CCc1cn(C)c2cc(O)c(F)cc12 [Compound 82, 3-[2-(Dimethylamino-ethyl)]-5-fluoro-1-methyl-1H-indol-6-ol] | < 10 | 165 to 169 | 83 | 589 ± 546 | < 10 | – | – | – | – | – | – | – | –
CCOc1c(F)ccc2c1c(CCN(C)C)cn2CC.Cl [Compound 60, 2-(4-Ethoxy-1-ethyl-5-fluoro-1H-indol-3-yl)-N,N-dimethylethanamine hydrochloride] | < 10 | 130 to 132 | 69 | 4.2 ± 0.94 | < 10 | – | – | – | – | – | – | – | –
CCOc1cc(F)cc2c1c(CCN(C)C)cn2C.Cl [Compound 32, 2-(4-Ethoxy-6-fluoro-1-methyl-1H-indol-3-yl)-N,N-dimethylethanamine hydrochloride] | – | 202.2 to 203.3 | 85 | 31 ± 23.6 | – | (26 ± 7.6 @ 10,000) % | > 10000 | 66 | 166 ± 113 | – | – | – | –
COc1c(F)cc(F)c2c1c(CCN(C)C)cn2C.Cl [Compound 58, 2-(5,7-Difluoro-4-methoxy-1-methyl-1H-indol-3-yl)-N,N-dimethylethanamine hydrochloride] | < 10 | 185 to 189 | 51 | 2.4 ± 0.44 | < 10 | – | – | – | – | – | – | – | –
CCn1cc(CCN(C)C)c2c(OC)c(F)ccc21.Cl [Compound 41, 2-(1-Ethyl-5-fluoro-4-methoxy-1H-indol-3-yl)-N,N-dimethylethanamine hydrochloride] | < 10 | 149 to 150 | 37 | 1.4 ± 0.19 | < 10 | – | – | – | – | – | – | – | –
CCCOc1cc(F)cc2c1c(CCN(C)C)cn2CC [Compound 36, 2-(1-Ethyl-6-fluoro-4-propoxy-1H-indol-3-yl)-N,N-dimethylethanamine] | < 10 | 68.9 to 70.1 | 87 | 659 ± 352 | – | – | – | – | 543 ± 325 | – | – | – | –
CCOc1c(F)ccc2c1c(CCN(C)C)cn2C [Compound 59, 2-(4-Ethoxy-5-fluoro-1-methyl-1H-indol-3-yl)-N,N-dimethylethanamine hydrochloride] | < 10 | – | 51 | 0.82 ± 0.23 | < 10 | – | – | – | – | – | – | – | –
CCn1cc(CCN(C)C)c2c(OC)ccc(F)c21 [Compound 23, 2-(1-Ethyl-7-fluoro-4-methoxy-1H-indol-3-yl)-N,N-dimethylethanamine] | – | – | 71 | 13 ± 1.74 | < 10 | (17 ± 3.7 @ 10,000) % | > 10000 | – | – | – | – | – | –
CCCOc1ccc(F)c2c1c(CCN(C)C)cn2C [Compound 27, 2-(7-Fluoro-1-methyl-4-propoxy-1H-indol-3-yl)-N,N-dimethylethanamine] | < 10 | – | 75 | 96 ± 19.8 | – | – | – | 54 | 334 ± 88.7 | – | – | – | –
CN(C)CCc1cn(C)c2c(F)ccc(OCc3ccccc3)c12 [Compound 50, 4-Benzyloxy-3-(2-dimethylaminoethyl)-7-fluoro-1-methyl-1H-indole] | < 10 | 60 to 62 | 81 | 282 | < 10 | – | – | – | – | – | – | – | –
COc1cc(F)cc2c1c(CCN(C)C)cn2C.Cl [Compound 31, 2-(6-Fluoro-4-methoxy-1-methyl-1H-indol-3-yl)-N,N-dimethylethanamine hydrochloride] | – | 260.6 to 261.3 | 87 | 9.9 ± 3.27 | – | (21 ± 7.9 @ 10,000) % | > 10000 | 51 | 55 ± 7.77 | – | – | – | –
CCCn1cc(CCN(C)C)c2c(OCC)cc(F)cc21.Cl [Compound 38, 2-(4-Ethoxy-6-fluoro-1-propyl-1H-indol-3-yl)-N,N-dimethylethanamine hydrochloride] | < 10 | 154 to 156 | 80 | 1250 | < 10 | – | – | – | – | – | – | – | –
CCCn1cc(CCN(C)C)c2cc(F)c(O)cc21 [Compound 84, 3-[2-(Dimethylamino-ethyl)]-5-fluoro-1-propyl-1H-indol-6-ol] | < 10 | 157 to 159 | 70 | 507 ± 314 | < 10 | – | – | – | – | – | – | – | –
CN(C)CCc1cn(C)c2ccc(F)c(OCc3ccccc3)c12.Cl [Compound 52, 4-Benzyloxy-3-(2-dimethylaminoethyl)-5-fluoro-1-methyl-1H-indole hydrochloride] | < 10 | 139 to 141 | 79 | 44 | < 10 | – | – | – | – | – | – | – | –
CCOc1ccc(F)c2c1c(CCN(C)C)cn2C [Compound 26, 2-(4-Ethoxy-7-fluoro-1-methyl-1H-indol-3-yl)-N,N-dimethylethanamine] | – | – | 82 | 43 ± 18.8 | – | – | 1490 | 28 | 217 ± 95.9 | (25 ± 4.1%) | – | – | –
COc1ccc(Br)c2c1c(CCN(C)C)cn2C.Cl [Compound 73, 2-(7-Bromo-4-methoxy-1-methyl-1H-indol-3-yl)-N,N-dimethylethanamine hydrochloride] | < 10 | 235 to 236 | 48 | 274 ± 57.7 | < 10 | – | – | – | – | – | – | – | –
CCCn1cc(CCN(C)C)c2c(OC)ccc(F)c21 [Compound 28, 2-(7-Fluoro-4-methoxy-1-propyl-1H-indol-3-yl)-N,N-dimethylethanamine] | < 10 | – | 45 | 76 ± 39.1 | < 10 | – | – | – | – | – | – | – | –
CCCn1cc(CCN(C)C)c2c(OCC)ccc(F)c21 [Compound 29, 2-(4-Ethoxy-7-fluoro-1-propyl-1H-indol-3-yl)-N,N-dimethylethanamine] | < 10 | – | 43 | 346 ± 97 | < 10 | – | – | – | – | – | – | – | –
NCCc1c[nH]c2ccc(O)cc12 [Compound 5-HT, 5-hydroxytryptamine, reference compound] | – | – | – | – | – | – | – | – | – | (100%) | – | – | –
CCCOc1c(F)ccc2c1c(CCN(C)C)cn2CCC.Cl | – | 142 to 145 | – | – | – | – | – | – | – | – | – | – | –
CCn1cc(CCN(C)C)c2cc(F)c(O)cc21 [Compound 83, 3-[2-(Dimethylamino-ethyl)]-1-ethyl-5-fluoro-1H-indol-6-ol] | – | – | – | 221 ± 27 | – | – | – | – | – | – | N/A (N/A: <10% max HT @ 10,000 nM) | (73 ± 4%) | N/A (N/A: <10% max HT @ 10,000 nM)
CCCOc1ccc(F)c2c1c(CCN(C)C)cn2CCC [Compound 30, 2-(7-Fluoro-4-propoxy-1-propyl-1H-indol-3-yl)-N,N-dimethylethanamine] | < 10 | – | 37 | 858 ± 289 | < 10 | – | – | – | – | – | – | – | –
